Holding throughout (format): functional
Test [1] concerns Bacillus subtilis. As to the kind of experiment: Zone of inhibition of Bacillus subtilis at compound concentration of 40 mg/mL.
In test [2] the test system is Bacillus subtilis. Nature of the test: Zone of inhibition of Bacillus subtilis at compound concentration of 80 mg/mL.
Test [3] relates to Salmonella enterica subsp. enterica serovar Typhi. As to the kind of experiment: Zone of inhibition of Salmonella typhae at compound concentration of 40 mg/mL.
For test [4] the test system is unchanged. As to the kind of experiment: Zone of inhibition of Salmonella typhae at compound concentration of 80 mg/mL.
Test [5] deals with Bacillus subtilis. As to the kind of experiment: Zone of inhibition of Bacillus subtilis at compound concentration of 160 mg/mL.
The test system of test [6] is Salmonella enterica subsp. enterica serovar Typhi. As to the kind of experiment: Zone of inhibition of Salmonella typhae at compound concentration of 160 mg/mL.
Test [7] relates to Klebsiella pneumoniae. Nature of the test: Zone of inhibition of Klebsiella pneumoniae at compound concentration of 40 mg/mL.
The test system of test [8] is Klebsiella pneumoniae. Nature of the test: Zone of inhibition of Klebsiella pneumoniae at compound concentration of 80 mg/mL.
For test [9], the system named is Klebsiella pneumoniae. Nature of the test: Zone of inhibition of Klebsiella pneumoniae at compound concentration of 160 mg/mL.
For test [10], the system named is Pseudomonas aeruginosa. Nature of the test: Zone of inhibition of Pseudomonas aeruginosa at compound concentration of 40 mg/mL.
The test system of test [11] is Pseudomonas aeruginosa. As to the kind of experiment: Zone of inhibition of Pseudomonas aeruginosa at compound concentration of 80 mg/mL.
Test [12] concerns Pseudomonas aeruginosa. As to the kind of experiment: Zone of inhibition of Pseudomonas aeruginosa at compound concentration of 160 mg/mL.
Test [13] concerns Escherichia coli. As to the kind of experiment: Zone of inhibition of Escherichia coli at compound concentration of 40 mg/mL.
Test [14] deals with Escherichia coli. As to the kind of experiment: Zone of inhibition of Escherichia coli at compound concentration of 80 mg/mL.
Test [15] has as its system Escherichia coli. Nature of the test: Zone of inhibition of Escherichia coli at compound concentration of 160 mg/mL.
Test [16] has as its system Staphylococcus aureus. As to the kind of experiment: Zone of inhibition of Staphylococcus aureus at compound concentration of 40 mg/mL.
Test [17] concerns Staphylococcus aureus. Nature of the test: Zone of inhibition of Staphylococcus aureus at compound concentration of 80 mg/mL.
The test system of test [18] is Staphylococcus aureus. As to the kind of experiment: Zone of inhibition of Staphylococcus aureus at compound concentration of 160 mg/mL.
The test system of test [19] is Escherichia coli. As to the kind of experiment: Zone of inhibition Escherichia coli at compound concentration of 40 mg/mL.
In test [20] the test system is Escherichia coli. As to the kind of experiment: Zone of inhibition Escherichia coli at compound concentration of 80 mg/mL.
Test [21] relates to Escherichia coli. Nature of the test: Zone of inhibition Escherichia coli at compound concentration of 160 mg/mL.
Test [22] relates to Klebsiella pneumoniae. Nature of the test: Zone of inhibition Klebsiella pneumoniae at compound concentration of 40 mg/mL.
The test system of test [23] is Klebsiella pneumoniae. Nature of the test: Zone of inhibition Klebsiella pneumoniae at compound concentration of 160 mg/mL.
Test [24] deals with Klebsiella pneumoniae. Nature of the test: Zone of inhibition Klebsiella pneumoniae at compound concentration of 80 mg/mL.
In test [25] the test system is Escherichia coli. As to the kind of experiment: Zone of inhibition Escherichia coli Escherichia coli at compound concentration of 80 mg/mL.
Test [26] relates to Escherichia coli. As to the kind of experiment: Zone of inhibition Escherichia coli Escherichia coli at compound concentration of 160 mg/mL.

This note sets out measurements from ChEMBL document CHEMBL1145222, “Synthesis and in vitro study of novel Mannich bases as antibacterial agents” (2005).

As to `COc1ccc(Cl)cc1C(=O)NCN(c1ccccc1)c1ccccc1`, the Inhibition in test [1] was found to be 7.5 mm; in test [2] it was 7.5 mm; in test [3] it was 7.5 mm; in test [4], 7.5 mm; in test [5], 8 mm; in [6], 8.5 mm. Further, the Inhibition in test [7] is recorded as 7 mm; in test [8] it was 7 mm; in [9], 8 mm.
On to `COc1ccc(Cl)cc1C(=O)NCN(C)C`, for which the Inhibition came to 7 mm in test [7]; 7.5 mm in test [8]; 7.5 mm in test [9]; 7 mm in [10]; 7.5 mm in test [11]; 7.5 mm in test [12].
Take `Nc1ccc(S(N)(=O)=O)cc1` [SULFANILAMIDE]: the Inhibition in test [13] was 16.5 mm; in test [14], 18 mm; in test [1] it was 10.5 mm; in test [2], 11.5 mm; in test [15], 20.5 mm; in [3] it was 7 mm. The Inhibition in [4] was 7.5 mm; in [5], 13 mm; in [6], 7.5 mm; in test [16], 20.5 mm; in test [17], 22.5 mm; in [10] it was 13.5 mm. Further, the results for the Inhibition in [11], in test [18] and in test [12] were 15.5 mm, 25 mm and 17.5 mm, respectively.
Turning to `COc1ccc(Cl)cc1C(=O)NCN(CCO)CCO`, the Inhibition stood at 7 mm in [1]; 7.5 mm in test [2]; 7 mm in test [19]; 7.5 mm in test [20]; 8.5 mm in [21]; 7 mm in test [22]. For the same molecule, the values for the Inhibition in test [5], in test [23] and in test [24] were 8.5 mm, 7.5 mm and 7.5 mm, respectively.
For `COc1ccc(Cl)cc1C(=O)NCNc1ccc(S(=O)(=O)Nc2ncccn2)cc1`, the Inhibition is 8 mm in [13]; 8.5 mm in test [14]; 7 mm in [1]; 7 mm in test [2]; 9.5 mm in [15]; 7 mm in [3]. For the same molecule, the Inhibition in test [4] was 7 mm; in test [5] it was 7.5 mm; in test [6], 7.5 mm; in test [7], 7.5 mm; in test [8], 8 mm; in [16], 9.5 mm. Also, the Inhibition in test [17] is reported as 11.5 mm; in test [9] it was 8.5 mm; in test [10], 7.5 mm; in test [11], 7.5 mm; in [18] it was 15 mm; in test [12], 8.5 mm.
Take `COc1ccc(Cl)cc1C(=O)NCNc1ccc(S(=O)(=O)NN)cc1`: the Inhibition in [1] amounted to 7 mm; in test [2], 7.5 mm; in test [3], 7 mm; in test [4], 7.5 mm; in test [19], 7 mm; in test [5], 11.5 mm. Moreover, the Inhibition in [6] was 8 mm; in [25] it was 7.5 mm; in test [26], 8.5 mm; in test [7], 7 mm; in [8], 7.5 mm; in [16], 7.5 mm. Also, the Inhibition in test [17] came to 8.5 mm; in test [9], 9.5 mm; in test [10] it was 7.5 mm; in [11], 8 mm; in test [18], 11 mm; in test [12], 8.5 mm.
As for `COc1ccc(Cl)cc1C(=O)NCN1CCOCC1`, the Inhibition in [13] is on record as 9.5 mm; in test [14], 10.5 mm; in test [1], 8.5 mm; in test [2], 9 mm; in test [15], 12.5 mm; in [5] it was 10.5 mm. Also, the Inhibition in [7] was determined as 10.5 mm; in [8], 12.5 mm; in [16], 11 mm; in test [17], 13.5 mm; in test [9], 14.5 mm; in test [10], 9.5 mm. For the same molecule, the Inhibition in test [11] is 10.5 mm; in test [18] it was 16.5 mm; in test [12], 12 mm.
On to `Cc1cc(NS(=O)(=O)c2ccc(N)cc2)no1` [SULFAMETHOXAZOLE], for which the Inhibition worked out at 18.5 mm in test [13]; 20.5 mm in [14]; 15.5 mm in test [1]; 18.5 mm in test [2]; 8.5 mm in [3]; 9 mm in [4]. Further, the Inhibition in [5] is 20 mm; in [6], 12.5 mm; in [7] it was 8.5 mm; in [8] it was 9 mm; in test [16] it was 19.5 mm; in test [17] it was 20.5 mm. For the same molecule, the Inhibition in test [9] came out at 11.5 mm; in test [18] it was 21 mm.
As to `COc1ccc(Cl)cc1C(=O)NCNc1ccc(S(=O)(=O)[N-]C(C)=O)cc1.[Na+]`, the Inhibition in [1] came out at 10.5 mm; in test [2], 12.5 mm; in test [3], 10.5 mm; in test [4] it was 14.5 mm; in [19], 9.5 mm; in test [20], 10.5 mm. Besides, the Inhibition in test [21] is 13 mm; in [5], 16.5 mm; in test [6], 22 mm; in [7], 10 mm; in [8], 12.5 mm; in [16], 10.5 mm. Besides, the Inhibition in test [17] is listed as 14.5 mm; in [9] it was 15.5 mm; in test [10] it was 9.5 mm; in [11], 12.5 mm; in test [18] it was 22 mm; in [12] it was 14.5 mm.
In the case of `Nc1ccc(S(=O)(=O)Nc2ncccn2)cc1` [SULFADIAZINE], the Inhibition in test [13] came out at 8.5 mm; in [14], 9.5 mm; in [1], 8.5 mm; in test [2] it was 9.5 mm; in test [15], 12.5 mm; in [3] it was 7 mm. Also, the Inhibition in [4] is 7.5 mm; in [5], 13.5 mm; in test [6], 9 mm; in [7], 12.5 mm; in test [8] it was 13.5 mm; in test [16], 7 mm. In addition, the Inhibition in test [17] is listed as 7.5 mm; in test [9] it was 15 mm; in test [18] it was 9.5 mm.
Turning to `CC(=O)[N-]S(=O)(=O)c1ccc(N)cc1.[Na+]`, the Inhibition is 9.5 mm in test [1]; 10 mm in [2]; 15 mm in test [5]; 19.5 mm in [16]; 21 mm in test [17]; 24 mm in [18].
